Results reported in patent publication US10385054B2, “Pyrrolo[3,2-d]pyrimidine derivatives for the treatment of viral infections and other diseases” (Janssen Sciences Ireland Unlimited Company, priority 2013, dated 2019).

Biological target: T1, human TLR7 (Homo sapiens, UniProt Q9NYK1)
T1 construct: expressed in transfected cells; host or cells: HEK293
T1 sequence (Q9NYK1 27-1049): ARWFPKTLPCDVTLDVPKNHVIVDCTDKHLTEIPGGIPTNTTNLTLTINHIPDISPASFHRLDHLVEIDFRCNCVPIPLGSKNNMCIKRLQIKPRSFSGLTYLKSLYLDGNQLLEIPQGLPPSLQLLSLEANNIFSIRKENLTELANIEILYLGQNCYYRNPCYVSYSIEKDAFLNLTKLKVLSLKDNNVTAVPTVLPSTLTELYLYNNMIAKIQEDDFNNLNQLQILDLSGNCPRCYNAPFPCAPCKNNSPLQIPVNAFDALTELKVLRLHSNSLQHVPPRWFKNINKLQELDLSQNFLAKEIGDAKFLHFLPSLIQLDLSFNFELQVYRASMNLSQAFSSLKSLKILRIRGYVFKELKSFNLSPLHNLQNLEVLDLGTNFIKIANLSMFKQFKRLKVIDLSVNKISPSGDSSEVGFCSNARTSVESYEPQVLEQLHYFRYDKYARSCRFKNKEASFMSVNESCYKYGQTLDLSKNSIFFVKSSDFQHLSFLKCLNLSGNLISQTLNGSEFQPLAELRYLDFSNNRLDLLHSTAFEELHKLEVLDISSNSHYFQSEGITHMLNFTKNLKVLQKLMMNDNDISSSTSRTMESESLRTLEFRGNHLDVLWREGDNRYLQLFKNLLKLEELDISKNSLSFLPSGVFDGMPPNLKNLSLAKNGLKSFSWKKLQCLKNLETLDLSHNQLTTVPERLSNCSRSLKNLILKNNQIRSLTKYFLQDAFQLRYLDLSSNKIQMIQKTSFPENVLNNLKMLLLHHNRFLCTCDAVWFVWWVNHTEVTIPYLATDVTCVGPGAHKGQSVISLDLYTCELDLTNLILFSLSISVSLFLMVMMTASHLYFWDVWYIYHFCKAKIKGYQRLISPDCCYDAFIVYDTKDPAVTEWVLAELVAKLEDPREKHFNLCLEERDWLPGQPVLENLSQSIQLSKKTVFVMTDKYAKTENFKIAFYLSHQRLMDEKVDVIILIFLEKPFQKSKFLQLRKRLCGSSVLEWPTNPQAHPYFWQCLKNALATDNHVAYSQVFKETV
Assay: TLR7 cellular NFκB-luc reporter assay in transiently transfected HEK293 cells
Format: cell-based
Settings: lowest effective concentration, 6 hours incubation
Method: (§1) The ability of compounds to activate human TLR7 and/or TLR8 was assessed in a cellular reporter assay using HEK293 cells transiently transfected with a TLR7 or TLR8 expression vector and NFκB-luc reporter construct.
(§2) Briefly, HEK293 cells were grown in culture medium (DMEM supplemented with 10% FCS and 2 mM Glutamine). For transfection of cells in 15 cm dishes, cells were detached with Trypsin-EDTA, transfected with a mix of CMV-TLR7 or TLR8 plasmid (1700 ng), NFκB-luc plasmid (850 ng) and a transfection reagent and incubated for 48 h at 37° C. in a humidified 5% CO2 atmosphere. Transfected cells were then washed in PBS, detached with Trypsin-EDTA and resuspended in medium to a density of 1.25×10^5 cells/mL. Forty microliters of cells were then dispensed into each well in 384-well plates, where 200 nL of compound in 100% DMSO was already present. Following 6 hours incubation at 37° C., 5% CO2, the luciferase activity was determined by adding 15 μL of Steady Lite Plus substrate (Perkin Elmer) to each well and readout performed on a ViewLux ultraHTS microplate imager (Perkin Elmer). Dose response curves were generated from measurements performed in quadruplicates.

SMILES	Human TLR 7 (LEC)
CCCCOc1nc(N)nc2ccn(Cc3ccccc3)c12 [Compound 1]	0.6 µM
CCCCOc1nc(N)nc2ccn(Cc3ccccn3)c12 [Compound 4]	1.4 µM

Second part, the compound after the results:

Human TLR 7 (LEC)	SMILES
2.7 µM	COCCn1ccc2nc(N)nc(OCc3cc(C)on3)c21 [Compound 2]
0.1 µM	COc1ccccc1Cn1ccc2nc(N)nc(OCc3cc(C)on3)c21 [Compound 3]
0.08 µM	COc1ccc(Cn2ccc3nc(N)nc(OCc4cc(C)on4)c32)nc1OC [Compound 7]
0.03 µM	COc1cccnc1Cn1ccc2nc(N)nc(OCc3cc(C)on3)c21 [Compound 8]

Biological target: T2, human TLR8 (Homo sapiens, UniProt Q9NR97)
T2 construct: expressed in transfected cells; host or cells: HEK293
T2 sequence (Q9NR97 27-1041): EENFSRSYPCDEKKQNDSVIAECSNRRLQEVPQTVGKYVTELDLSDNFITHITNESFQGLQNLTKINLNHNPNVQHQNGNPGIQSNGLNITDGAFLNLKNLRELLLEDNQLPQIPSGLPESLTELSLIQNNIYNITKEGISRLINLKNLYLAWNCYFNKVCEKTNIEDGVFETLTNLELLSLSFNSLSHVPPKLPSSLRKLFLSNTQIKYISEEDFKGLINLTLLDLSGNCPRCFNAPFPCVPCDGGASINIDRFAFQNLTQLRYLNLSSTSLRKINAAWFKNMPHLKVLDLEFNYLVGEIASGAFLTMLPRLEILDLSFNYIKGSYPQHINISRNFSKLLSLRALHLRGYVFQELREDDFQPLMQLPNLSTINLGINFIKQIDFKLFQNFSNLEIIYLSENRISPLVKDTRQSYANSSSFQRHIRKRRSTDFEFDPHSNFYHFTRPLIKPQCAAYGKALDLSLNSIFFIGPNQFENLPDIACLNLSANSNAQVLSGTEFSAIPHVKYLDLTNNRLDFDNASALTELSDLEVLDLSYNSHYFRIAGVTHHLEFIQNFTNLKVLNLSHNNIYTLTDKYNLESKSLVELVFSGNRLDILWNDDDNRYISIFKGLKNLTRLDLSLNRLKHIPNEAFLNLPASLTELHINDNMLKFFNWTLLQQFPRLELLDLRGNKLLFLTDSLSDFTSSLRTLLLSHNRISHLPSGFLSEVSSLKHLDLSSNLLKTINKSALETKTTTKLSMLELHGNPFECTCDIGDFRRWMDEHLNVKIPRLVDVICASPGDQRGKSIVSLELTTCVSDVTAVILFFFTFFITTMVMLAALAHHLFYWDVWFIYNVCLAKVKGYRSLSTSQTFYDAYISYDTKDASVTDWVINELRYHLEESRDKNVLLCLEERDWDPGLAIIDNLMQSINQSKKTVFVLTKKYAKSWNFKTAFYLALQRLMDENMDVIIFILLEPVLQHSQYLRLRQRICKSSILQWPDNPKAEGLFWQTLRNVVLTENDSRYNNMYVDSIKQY
Assay: TLR8 cellular NFκB-luc reporter assay in transiently transfected HEK293 cells
Format: cell-based
Settings: lowest effective concentration, 6 hours incubation
Method: as §1
as §2, with “quadruplicates. Lowest effective concentrations (LEC) values, defined as the concentration that induces an effect which is at least two fold above the standard deviation of the assay, were determined for each compound.” for “quadruplicates.”

SMILES	Human TLR 8 (LEC)
CCCCOc1nc(N)nc2ccn(Cc3ccccc3)c12 [Compound 1]	>25 µM
CCCCOc1nc(N)nc2ccn(Cc3ccccn3)c12 [Compound 4]	>25 µM
Cc1cnc(COc2nc(N)nc3ccn(Cc4ccccn4)c23)s1 [Compound 10]	>25 µM
Cc1cnc(COc2nc(N)nc3ccn(Cc4ccccn4)c23)o1 [Compound 11]	>25 µM

Second part, the compound after the results:

Human TLR 8 (LEC)	SMILES
>25 µM	COCCn1ccc2nc(N)nc(OCc3cc(C)on3)c21 [Compound 2]
>25 µM	COc1ccccc1Cn1ccc2nc(N)nc(OCc3cc(C)on3)c21 [Compound 3]
>25 µM	Cc1cc(COc2nc(N)nc3ccn(Cc4ccccn4)c23)no1 [Compound 5]
>25 µM	Cc1nc(COc2nc(N)nc3ccn(Cc4ccccn4)c23)no1 [Compound 6]
>25 µM	COc1ccc(Cn2ccc3nc(N)nc(OCc4cc(C)on4)c32)nc1OC [Compound 7]
>25 µM	COc1cccnc1Cn1ccc2nc(N)nc(OCc3cc(C)on3)c21 [Compound 8]
>25 µM	COc1cccnc1Cn1ccc2nc(N)nc(OCc3ncc(C)o3)c21 [Compound 9]

Tested on: interferon-stimulated responsive elements (ISRE)
Assay: Activation of ISRE promoter elements in HEK-ISREluc cells by conditioned media from compound-treated PBMC
Format: cell-based
Settings: compound concentration applied to PBMCs overnight, supernatant on HEK-ISREluc cells 24 hours, read-out: HEK-ISRE luc (LEC)
Method: The potential of compounds to induce IFN-I was also evaluated by measuring the activation of interferon-stimulated responsive elements (ISRE) by conditioned media from PBMC. The ISRE element of sequence […] (SEQ ID NO: 1) is highly responsive to the STAT1-STAT2-IRF9 transcription factor, activated upon binding of IFN-I to their receptor IFNAR (Clontech, PT3372-5W). The plasmid pISRE-Luc from Clontech (ref. 631913) contains 5 copies of this ISRE element, followed by the firefly luciferase ORF. A HEK293 cell line stably transfected with pISRE-Luc (HEK-ISREluc) was established to profile the conditioned PBMC cell culture media.
Briefly, PBMCs were prepared from buffy coats of at least two donors using a standard Ficoll centrifugation protocol. Isolated PBMCs were resuspended in RPMI medium supplemented with 10% human AB serum and 2×10^5 cells/well were dispensed into 384-well plates containing compounds (70 μL total volume). After overnight incubation, 10 μL of supernatant was transferred to 384-well plates containing 5×10^3 HEK-ISREluc cells/well in 30 μL (plated the day before). Following 24 hours of incubation, activation of the ISRE elements was measured by assaying luciferase activity using 40 μL/well Steady Lite Plus substrate (Perkin Elmer) and measured with ViewLux ultraHTS microplate imager (Perkin Elmer). The stimulating activity of each compound on the HEK-ISREluc cells was reported as LEC value, defined as the compound concentration applied to the PBMCs resulting in a luciferase activity at least two fold above the standard deviation of the assay. The LEC in turn indicates the degree of ISRE activation on transfer of a defined amount of PBMC culture medium. Recombinant interferon α-2a (Roferon-A) was used as a standard control compound.

SMILES	minimal effective concentration
CCCCOc1nc(N)nc2ccn(Cc3ccccc3)c12 [Compound 1]	0.4 µM
COCCn1ccc2nc(N)nc(OCc3cc(C)on3)c21 [Compound 2]	0.5 µM
COc1ccccc1Cn1ccc2nc(N)nc(OCc3cc(C)on3)c21 [Compound 3]	0.03 µM
CCCCOc1nc(N)nc2ccn(Cc3ccccn3)c12 [Compound 4]	0.6 µM
COc1ccc(Cn2ccc3nc(N)nc(OCc4cc(C)on4)c32)nc1OC [Compound 7]	0.03 µM
COc1cccnc1Cn1ccc2nc(N)nc(OCc3cc(C)on3)c21 [Compound 8]	0.01 µM
